The supplement of paper PMC10307832

Key:
Test in all cases: relative viability (nuclei count vs DMSO), 5 days (fraction); higher = more cells survive
Idelalisib + Lapatinib = compound: CC[C@H](Nc1ncnc2[nH]cnc12)c1nc2cccc(F)c2c(=O)n1-c1ccccc1 [Idelalisib] + CS(=O)(=O)CCNCc1ccc(-c2ccc3ncnc(Nc4ccc(OCc5cccc(F)c5)c(Cl)c4)c3c2)o1 [Lapatinib] (partner 2 µM)
Procedure, shortened: (§1)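 Each reported value is a median over duplicate plates. It expresses relative viability: treated-well nuclei count divided by vehicle-well nuclei count. Lung cancer cell lines in 1536-well plates were dosed by pin tool a day after seeding, alone with one drug or with a fixed anchor-drug dose plus five library-drug doses (not always all listed) in √10 steps, and nuclei were counted after 5 days.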

Idelalisib + Decitabine = compound: CC[C@H](Nc1ncnc2[nH]cnc12)c1nc2cccc(F)c2c(=O)n1-c1ccccc1 [Idelalisib] + Nc1ncn([C@H]2C[C@H](O)[C@@H](CO)O2)c(=O)n1 [Decitabine] (partner 2 µM)
Procedure, shortened: as §1

Pemetrexed + Trametinib = compound: Nc1nc2[nH]cc(CCc3ccc(C(=O)N[C@@H](CCC(=O)O)C(=O)O)cc3)c2c(=O)[nH]1 [Pemetrexed] + CC(=O)Nc1cccc(-n2c(=O)n(C3CC3)c(=O)c3c(Nc4ccc(I)cc4F)n(C)c(=O)c(C)c32)c1 [Trametinib] (partner 0.02 µM)
Procedure, shortened: as §1

Pemetrexed + Crizotinib = compound: Nc1nc2[nH]cc(CCc3ccc(C(=O)N[C@@H](CCC(=O)O)C(=O)O)cc3)c2c(=O)[nH]1 [Pemetrexed] + C[C@@H](Oc1cc(-c2cnn(C3CCNCC3)c2)cnc1N)c1c(Cl)ccc(F)c1Cl [Crizotinib] (partner 1 µM)
Procedure, shortened: as §1

Cell Line | relative viability (Idelalisib + Lapatinib; first compound 0.04 µM) | relative viability (Idelalisib + Lapatinib; first compound 0.1265 µM) | relative viability (Idelalisib + Lapatinib; first compound 0.4 µM) | relative viability (Idelalisib + Lapatinib; first compound 1.265 µM) | relative viability (Idelalisib + Lapatinib; first compound 4 µM) | relative viability (Idelalisib + Decitabine; first compound 0.04 µM) | relative viability (Idelalisib + Decitabine; first compound 0.1265 µM) | relative viability (Idelalisib + Decitabine; first compound 0.4 µM) | relative viability (Idelalisib + Decitabine; first compound 1.265 µM) | relative viability (Idelalisib + Decitabine; first compound 4 µM) | relative viability (Pemetrexed + Trametinib; first compound 0.002 µM) | relative viability (Pemetrexed + Trametinib; first compound 0.006325 µM) | relative viability (Pemetrexed + Trametinib; first compound 0.02 µM) | relative viability (Pemetrexed + Trametinib; first compound 0.06325 µM) | relative viability (Pemetrexed + Trametinib; first compound 0.2 µM) | relative viability (Pemetrexed + Crizotinib; first compound 0.002 µM) | relative viability (Pemetrexed + Crizotinib; first compound 0.006325 µM) | relative viability (Pemetrexed + Crizotinib; first compound 0.02 µM) | relative viability (Pemetrexed + Crizotinib; first compound 0.06325 µM) | relative viability (Pemetrexed + Crizotinib; first compound 0.2 µM)
SK-LU-1 | 0.851 | 0.866 | 0.617 | 0.998 | 0.661 | 0.645 | 0.605 | 0.581 | 0.706 | 0.618 | 0.412 | 0.478 | 0.61 | 0.402 | 0.424 | 0.771 | 0.883 | 0.858 | 0.953 | 0.731
NCI-H358 | 0.468 | 0.469 | 0.37 | 0.488 | 0.498 | 0.237 | 0.216 | 0.191 | 0.202 | 0.21 | 0.133 | 0.117 | 0.151 | 0.125 | 0.125 | 0.555 | 0.524 | 0.558 | 0.287 | 0.179
NCI-H2085 | 0.744 | 0.757 | 0.687 | 0.723 | 0.503 | 0.528 | 0.57 | 0.622 | 0.596 | 0.61 | 0.605 | 0.47 | 0.553 | 0.583 | 0.576 | 0.96 | 0.869 | 0.752 | 0.896 | 0.924
NCI-H2087 | 1.15 | 1.06 | 1.13 | 1.11 | 1.18 | 0.357 | 0.337 | 0.217 | 0.244 | 0.269 | 0.145 | 0.173 | 0.215 | 0.212 | 0.249 | 0.945 | 0.818 | 0.912 | 0.85 | 0.786
NCI-H322M | 0.612 | 0.62 | 0.521 | 0.53 | 0.502 | 0.712 | 0.69 | 0.613 | 0.664 | 0.746 | 0.511 | 0.478 | 0.503 | 0.456 | 0.551 | 0.886 | 0.884 | 1.05 | 0.912 | 0.778
NCI-H1734 | 0.93 | 1.03 | 0.989 | 0.958 | 0.98 | 0.522 | 0.461 | 0.497 | 0.518 | 0.496 | 0.603 | 0.623 | 0.679 | 0.627 | 0.524 | 0.721 | 0.647 | 0.745 | 0.723 | 0.686
EKVX | 0.21 | 0.234 | 0.184 | 0.201 | 0.186 | 0.323 | 0.341 | 0.334 | 0.294 | 0.316 | 0.337 | 0.327 | 0.37 | 0.297 | 0.218 | 0.816 | 0.841 | 0.907 | 0.856 | 0.508
NCI-H596 | 1.04 | 1.13 | 0.895 | 1.16 | 0.934 | 0.994 | 0.962 | 1.06 | 1.15 | 0.887 | 0.886 | 0.869 | 0.663 | 0.643 | 0.5 | 0.854 | 0.967 | 1.09 | 0.78 | 0.665
NCI-H1975 | 0.966 | 0.99 | 0.836 | 0.889 | 0.61 | 0.393 | 0.374 | 0.373 | 0.383 | 0.381 | 0.277 | 0.408 | 0.323 | 0.329 | 0.237 | – | 0.879 | 0.987 | 0.806 | 0.438
NCI-H2170 | 0.285 | 0.267 | 0.242 | 0.29 | 0.29 | 0.507 | 0.471 | 0.505 | 0.438 | 0.417 | 0.916 | 0.915 | 0.923 | 0.955 | 0.912 | 1.3 | 1.03 | 1.1 | 1.2 | 1.09
NCI-H1666 | 0.549 | 0.641 | 0.419 | 0.505 | 0.456 | 0.801 | 0.587 | 0.743 | 0.761 | 0.701 | 0.845 | 0.826 | 0.926 | 0.873 | 0.784 | 1.08 | 0.9 | 0.986 | 0.865 | 0.635
PC-3 [JPC-3] | 0.455 | 0.49 | 0.439 | 0.44 | 0.36 | 0.917 | 0.89 | 0.763 | 0.819 | 0.772 | 0.748 | 0.666 | 0.683 | 0.657 | 0.725 | 0.935 | 0.985 | 0.926 | 1.11 | 0.935
NCI-H1755 | 1.11 | 0.999 | 0.966 | 1.06 | 0.97 | 0.724 | 0.637 | 0.729 | 0.7 | 0.803 | 0.737 | 0.809 | 0.775 | 0.731 | 0.732 | 0.787 | 0.814 | 0.897 | 0.973 | 0.78
RERF-LC-KJ | 0.763 | 0.872 | 0.814 | 0.83 | 0.789 | 0.757 | 0.739 | 0.692 | 0.573 | 0.521 | 0.842 | 0.856 | 0.909 | 0.736 | 0.639 | 0.89 | 0.852 | 0.878 | 0.832 | 0.805
NCI-H647 | 1.13 | 1.27 | 0.834 | 0.95 | 0.546 | 0.332 | 0.408 | 0.3 | 0.318 | 0.193 | 0.52 | 0.436 | 0.478 | 0.406 | 0.17 | – | 0.921 | 1.14 | 0.785 | 0.32
BEN | 0.88 | 0.635 | 0.613 | 0.73 | 0.602 | 0.736 | 0.649 | 0.757 | 0.775 | 0.694 | 1.19 | 0.942 | 1.08 | 0.884 | 1.05 | 0.992 | 0.859 | 0.896 | 0.787 | 0.715
201T | 0.978 | 1.05 | 1.04 | 1.13 | 1.02 | 0.876 | 0.864 | 0.841 | 0.904 | 0.77 | 0.745 | 0.713 | 0.706 | 0.735 | 0.724 | 0.941 | 1.03 | 1.05 | 1.07 | 0.999
LC-2-ad | 1.04 | 0.963 | 0.949 | 1.05 | 0.868 | 0.789 | 0.797 | 0.811 | 0.825 | 0.711 | 0.915 | 0.856 | 0.87 | 0.82 | 0.306 | 0.425 | 0.473 | 0.457 | 0.263 | 0.29
LCLC-97TM1 | 0.913 | 1.28 | – | 1.08 | 0.602 | 0.254 | 0.223 | 0.269 | 0.262 | 0.226 | 0.21 | 0.189 | 0.179 | 0.211 | 0.184 | 0.263 | 0.352 | 0.404 | 0.338 | 0.224
NCI-H1915 | 1.06 | 1 | 0.96 | 1.11 | 0.922 | 0.256 | 0.249 | 0.269 | 0.253 | 0.256 | 0.287 | 0.294 | 0.248 | 0.306 | 0.283 | 0.876 | 0.834 | 0.936 | 0.877 | 0.914
NCI-H3122 | 1.06 | 0.981 | 1.05 | 1.03 | 1.05 | 0.461 | 0.418 | 0.358 | 0.444 | 0.369 | 0.255 | 0.236 | 0.252 | 0.218 | 0.202 | 0.275 | 0.261 | 0.261 | 0.244 | 0.233
NCI-H1650 | 0.888 | 0.806 | 0.762 | 0.775 | 0.561 | 0.456 | 0.465 | 0.515 | 0.359 | 0.448 | 0.496 | 0.534 | 0.6 | 0.296 | 0.229 | 0.971 | 0.902 | 0.939 | 0.689 | 0.332
NCI-H1993 | 0.816 | 0.887 | 0.76 | 0.802 | 0.84 | 0.53 | 0.584 | 0.588 | 0.545 | 0.501 | 0.457 | 0.439 | 0.551 | 0.522 | 0.549 | 0.877 | 0.878 | 0.894 | 0.879 | 0.982
NCI-H2405 | 1.16 | 1.07 | 0.897 | 1.14 | 1.04 | 0.751 | 0.752 | 0.644 | 0.838 | 0.691 | 0.735 | 0.589 | 0.66 | 0.582 | 0.653 | 0.868 | 0.785 | 0.869 | 0.824 | 0.825
NCI-H661 | 0.44 | 0.433 | 0.39 | 0.367 | 0.391 | 0.616 | 0.583 | 0.543 | 0.6 | 0.542 | 0.659 | 0.524 | 0.705 | 0.549 | 0.571 | 1.06 | 1.03 | 0.949 | – | 0.944
